Reference: US20220105051A1, “COMPOUNDS FOR INCREASING MHC-I EXPRESSION AND MODULATING HISTONE DEACETYLASE ACTIVITY” (Cava Healthcare Inc., priority 2019, published 2022)
Entries after “also recorded” stand apart in the source; their conditions may differ.

Key:
CD4+ and CD8+ T cells = assay: Analysis of tumour-infiltrating lymphocytes; assay type: in vivo, C57BL/6 mice; details: after 12 days of treatment, flow cytometry
Experimental: The metastatic cell line, A9, was grown in the DMEM, as previously described without, the addition of antibiotics (penicillin and streptomycin, P/S). Once cells reached 75-80% confluence, they were trypsinized (0.05%, Gibco) and washed with HBSS (Hanks balanced salt solution). The cells were counted using the Bio-RAD TC20 automated cell counter and suspended to a concentration of […] in HBSS. Thirty-two synergistic female C57BL/6 mice, between the ages 6-8 weeks, were subcutaneously injected in the right flank with 50 μL containing 5×10^4 A9 metastatic tumour cells. Seven days following tumour inoculation i.p. treatment began daily for 12 days. Four treatment groups were studied, with eight animals per group. […] Body weights were measured three times a week and once tumours developed they were measured with calipers and tumour volume was calculated. Twelve days after starting treatment, mice were euthanized and tumours were collected and weighed. The tumours were then processed for flow cytometry analysis. Tumours were cut into small pieces and incubated RPMI (Gibco; with P/S 0.5%, Sodium pyruvate 1%, and L-glutamine 1%) and 3 mg/mL collagenase A (Roche) for one hour at 37° C. with shaking. Dissociated tumour cells were passed through a 100 μm filter and spun down at 15,000×RCF for 3 minutes. The pellet was washed once in FACs buffer (2% FBS in PBS) and spun down. The pellet was next suspended in red blood cell (RBC) lysis buffer and kept at room temperature for 5 minutes before being neutralized by the addition of 5 ml of PBS and spun down. If pellets were still found to contain RBCs this step was repeated. Once all RBCs were removed cells were suspended in FACs buffer to a concentration of 10^7 cells/mL. A total volume of 200 ul of cells from each tumour were added to a 96 well plate (Falcon) and incubated with Fc Blocker (Biolegend, 1:400) for twenty minutes at 4° C. The 96 well plate was spun down at 1,200 rmp for three minutes and supernatant was removed. The cells were then suspended in 150 ul of FACs buffer containing anti-CD8a (PE-Cy7, 1:200, eBioscience) and CD4 (APC, 1:200, Biolegend) antibodies and incubated at 4° Celsius for 20 minutes. The cells were washed twice and spun down using FACs buffer before being to flow cytometry tubes in a final volume of 200 ul of FACs buffer containing 7AAD (Biolegend 1:200). Flow cytometry was performed on LSRII (BDBiosciences) and analysis was done using FlowJo (Flow cytometry Analysis Software).
Analysis of tumour-infiltrating lymphocytes (TILs). Tumour-infiltrating T lymphocyte (either CD4^+ or CD8^+ T cells) infiltration was evaluated in tumours of mice following 2-week treatment with either compounds or controls. Tumours at the site of initial injection were removed from tumour-bearing mice. Following tumour dissociation in the presence of collagenase A (Roche) and erythrocyte lysis, the tumour cells were then washed and prepared as single-cell suspensions to detect TILs. Before staining with antibodies, the cells were incubated with Fc Blocker (Ebiosciences) for 20 minutes at 4° C. The tumour cells were then washed and stained with anti-CD4-APC (Biolegend), anti-CD8-PECy7 (eBiosciences) and 7-AAD (Biolegend) viability stain. Using flow cytometry, 7-AAD positive dead cells were gated out and the remaining population was assessed for CD4^+ and CD8^+ expression. Data were acquired using a BD™ LSR II flow cytometer (BD Biosciences) with FACSDiva™ software and analyzed with FlowJo software (Treestar).

class I/II HDACs = assay: HDAC-Glo I/II Assay in A9 cells; assay type: cell-based, murine; details: for HDAC activity at the lowest concentrations: 1 nM-100 nM; for class I/II HDAC activity: 1 nM-1 μM; for HDAC activity at higher concentrations: up to 1 uM
Experimental: Compounds P02-113 and P03-97-1 were analyzed for their effect on histone deacetylase activity in the A9 cell line, using the HDAC-Glo™ I/II Assay and Screening System (Promega). The linear range was established for the A9 cells in a black-walled, clear-bottomed 96 well plate (PerkinElmer). Cells were diluted to 10^5 cells/mL and serial diluted by two fold, to a final concentration of 98 cells/ml. All dilutions were plated in triplicates in a volume of 100 ul per well. Cells were left overnight at 37° C. for 24 hours before addition of HDAC class I/II reagent. Luminescence was read after 30 minute incubation with HDAC class I/II reagent. After determination of an optimal cell density of 30,000 cells/well, cells were plated in 96 well plate and left for 24 hours at 37° C. Media was used as a blank control, as well a positive control was included consisting of HeLa cells provided in the HDAC assay kit. […] HDAC class I/II reagent was then added and incubated for 30 minutes before luminescence was measured using the Infinite M200 (Tecan) and i-control software (Tecan).
HDAC assays. To assess the effect of the compounds on the relative activity of histone deacetylase (HDAC) class I and II enzymes in the A9 cell line, we used the HDAC-Glo™ I/II Assay and Screening System (Promega). The linear range was established for the A9 cells following the manufacturer's instructions. Thirty thousand cells per well were plated in clear-bottom 96-well plates (Perkin Elmer) and plates were incubated at 37° C. […] Cell culture media was used as a blank control and HeLa cells provided in the HDAC assay kit were used as a positive control. HDAC class I/II reagent was then added and incubated for 30 minutes before luminescence was measured using the Infinite M200 (Tecan) and i-control software (Tecan).

Compound	CD4+ T cell infiltration of tumours (CD4+ and CD8+ T cells)	CD8+ T cell (CTL) infiltration of tumours (CD4+ and CD8+ T cells)	concentration of peak in HDAC activity (class I/II HDACs)	HDAC activity at the lowest concentrations (class I/II HDACs)	class I/II HDAC activity (class I/II HDACs)	HDAC activity at higher concentrations (class I/II HDACs)
CC(C)=CCCCc1ccc(C)cc1O [P02-113]	no significant infiltration or difference; also recorded: did not appear to increase	no significant change in CTL infiltration	around 180 nM	induction of HDAC activity	increase in class I/II HDAC activity	started to reduce it effect at higher concentrations; also recorded: started to reduce the effect at higher concentrations
COc1ccc(C(C)CCC=C(C)C)c(O)c1 (stereo not drawn) [P03-97-1]	no significant infiltration or difference; also recorded: did not appear to increase	greatest CD8+ infiltration; also recorded: increase in the CTL infiltration	around 180 nM	induction of HDAC activity	increase in class I/II HDAC activity	maintained peak levels of HDAC activity
